Laboratory results taken from PubChem BioAssay AID1919000 (Molecular Pharmacology Branch, DTP, NCI, 2023).

Test system: 653999-131-R-J2-PDC complex spheroids, growth % test/control
Assay: Anticancer human tumor 653999-131-R-J2-PDC patient-derived lung adenocarcinoma cell line growth inhibition [AhR]
Conditions: for IC50: curve of first compound; for viability, T/C: stronger effect = lower value
In short: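 Complex tumor spheroids co-cultured with HUVEC and human MSC stroma; AhR antagonists tested in combination with standard-of-care and investigational agents. Top concentration at or near clinical Cmax (else 10 microM), half-log dilutions; growth expressed as percent test/control.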
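Note: spheroids exposed to agents for seven days.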
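Throughout, for viability, T/C: 100% = DMSO vehicle control viability.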

`CC1(C)CCC(CN2CCN(c3ccc(C(=O)NS(=O)(=O)c4ccc(NCC5CCOCC5)c([N+](=O)[O-])c4)c(Oc4cnc5[nH]ccc5c4)c3)CC2)=C(c2ccc(Cl)cc2)C1` + Cc1ccccc1N=Nc1ccc(NC(=O)c2ccnn2C)c(C)c1 was tested, and the IC50 (second compound 0.1 µM) was over 10 µM, the IC50 (second compound 0.316 µM) was over 10 µM and the IC50 (second compound 1 µM) was over 10 µM. The IC50 (second compound 3.16 µM) was over 10 µM, the IC50 (second compound 10 µM) was over 10 µM and the viability, T/C (second compound 0.1 µM, first compound 0.0316 µM) was 100%. For the same compound, the viability, T/C (second compound 0.1 µM, first compound 0.1 µM) was 99.1%, the viability, T/C (second compound 0.1 µM, first compound 0.316 µM) was 103% and the viability, T/C (second compound 0.1 µM, first compound 1 µM) was 95.1%. The viability, T/C (second compound 0.1 µM, first compound 3.16 µM) was 97.7%, the viability, T/C (second compound 0.1 µM, first compound 10 µM) was 68.7% and the viability, T/C (second compound 0.316 µM, first compound 0.0316 µM) was 88.8%. The viability, T/C (second compound 0.316 µM, first compound 0.1 µM) was 90.6%, the viability, T/C (second compound 0.316 µM, first compound 0.316 µM) was 97.7% and the viability, T/C (second compound 0.316 µM, first compound 1 µM) was 86%. The viability, T/C (second compound 0.316 µM, first compound 3.16 µM) was 92.1%, the viability, T/C (second compound 0.316 µM, first compound 10 µM) was 64.7% and the viability, T/C (second compound 1 µM, first compound 0.0316 µM) was 99%. For the same compound, the viability, T/C (second compound 1 µM, first compound 0.1 µM) was 93.1%, the viability, T/C (second compound 1 µM, first compound 0.316 µM) was 89% and the viability, T/C (second compound 1 µM, first compound 1 µM) was 99.4%. For the same compound, the viability, T/C (second compound 1 µM, first compound 3.16 µM) was 91.7%, the viability, T/C (second compound 1 µM, first compound 10 µM) was 73.8% and the viability, T/C (second compound 3.16 µM, first compound 0.0316 µM) was 99.5%. It also gave a viability, T/C (second compound 3.16 µM, first compound 0.1 µM) of 90.2%, a viability, T/C (second compound 3.16 µM, first compound 0.316 µM) of 94.3% and a viability, T/C (second compound 3.16 µM, first compound 1 µM) of 90%. The viability, T/C (second compound 3.16 µM, first compound 3.16 µM) was 85.6%, the viability, T/C (second compound 3.16 µM, first compound 10 µM) was 80.8% and the viability, T/C (second compound 10 µM, first compound 0.0316 µM) was 84%. It also gave a viability, T/C (second compound 10 µM, first compound 0.1 µM) of 94.7%, a viability, T/C (second compound 10 µM, first compound 0.316 µM) of 83.9% and a viability, T/C (second compound 10 µM, first compound 1 µM) of 88.9%. For the same compound, the viability, T/C (second compound 10 µM, first compound 3.16 µM) was 81% and the viability, T/C (second compound 10 µM, first compound 10 µM) was 80.5%.
